Test results reported in ChEMBL document CHEMBL4819021, “Paratrimerins J-Y, Dimeric Coumarins Isolated from the Stems of Paramignya trimera” (J Nat Prod, 2021).
Active and inactive are the calls of the source.

Legend:
Type in all cases: functional, cell-based
MDA-MB-435 = assay: Cytotoxicity against human MDA-MB-435 cells assessed as reduction in cell viability at 40 uM measured after 72 hrs by MTS assay
BT-549 = assay: Cytotoxicity against human BT-549 cells assessed as reduction in cell viability at 40 uM measured after 72 hrs by MTS assay
T47D = assay: Cytotoxicity against human T47D cells assessed as reduction in cell viability at 40 uM measured after 72 hrs by MTS assay
SW480 = assay: Cytotoxicity against human SW480 cells assessed as reduction in cell viability at 40 uM measured after 72 hrs by MTS assay
MDA-MB-468 = assay: Cytotoxicity against human MDA-MB-468 cells assessed as reduction in cell viability at 40 uM measured after 72 hrs by MTS assay
HCC70 = assay: Cytotoxicity against human HCC70 cells assessed as reduction in cell viability at 40 uM measured after 72 hrs by MTS assay
HCT-116 = assay: Cytotoxicity against human HCT-116 cells assessed as reduction in cell viability at 40 uM measured after 72 hrs by MTS assay
MDA-MB-231 = assay: Cytotoxicity against human MDA-MB-231 cells assessed as reduction in cell viability at 40 uM measured after 72 hrs by MTS assay
KM12 = assay: Cytotoxicity against human KM12 cells assessed as reduction in cell viability at 40 uM measured after 72 hrs by MTS assay
HCC38 = assay: Cytotoxicity against human HCC38 cells assessed as reduction in cell viability at 40 uM measured after 72 hrs by MTS assay
SK-HEP1 = assay: Cytotoxicity against human SK-HEP1 cells assessed as reduction in cell viability at 40 uM measured after 72 hrs by MTS assay
MCF7 = assay: Cytotoxicity against human MCF7 cells assessed as reduction in cell viability at 40 uM measured after 72 hrs by MTS assay
HCC1428 = assay: Cytotoxicity against human HCC1428 cells assessed as reduction in cell viability at 40 uM measured after 72 hrs by MTS assay
SK-BR-3 = assay: Cytotoxicity against human SK-BR-3 cells assessed as reduction in cell viability at 40 uM measured after 72 hrs by MTS assay
RKO = assay: Cytotoxicity against human RKO cells assessed as reduction in cell viability at 40 uM measured after 72 hrs by MTS assay
COLO 205 = assay: Cytotoxicity against human COLO 205 cells assessed as reduction in cell viability at 40 uM measured after 72 hrs by MTS assay
HCT-8 = assay: Cytotoxicity against human HCT-8 cells assessed as reduction in cell viability at 40 uM measured after 72 hrs by MTS assay
SW-620 = assay: Cytotoxicity against human SW-620 cells assessed as reduction in cell viability at 40 uM measured after 72 hrs by MTS assay
Hs-578T = assay: Cytotoxicity against human Hs-578T cells assessed as reduction in cell viability at 40 uM measured after 72 hrs by MTS assay

Measured: Activity

CC1=C[C@H](c2cc3ccc(=O)oc3cc2O[C@@H]2O[C@H](CO[C@@H]3OC[C@](O)(CO)[C@H]3O)[C@@H](O)[C@H](O)[C@H]2O)[C@](C)(/C=C/c2cc3ccc(=O)oc3cc2O[C@@H]2O[C@H](CO)[C@@H](O)[C@H](O)[C@H]2O)CC1
inactive: all assays above

CC1=C[C@H](c2cc3ccc(=O)oc3cc2O[C@@H]2O[C@H](CO)[C@@H](O)[C@H](O)[C@H]2O)[C@](C)(/C=C/c2cc3ccc(=O)oc3cc2O[C@@H]2O[C@H](COC3OC[C@@H](O)[C@H](O)[C@H]3O)[C@@H](O)[C@H](O)[C@H]2O)CC1 (some centres not stated)
inactive: all assays above

CC1=C[C@@H](c2cc3ccc(=O)oc3cc2O[C@@H]2O[C@H](CO)[C@@H](O)[C@H](O)[C@H]2O)[C@@](C)(/C=C/c2cc3ccc(=O)oc3cc2O[C@@H]2O[C@H](CO)[C@@H](O)[C@H](O)[C@H]2O)CC1
inactive: all assays above
